Experimental data reported in patent US11912719B2, “Substituted isoquinolines as rock kinase inhibitors” (Cervello Therapeutics LLC, priority 2018, dated 2024).

Assays:
Assay type in all cases: biochemical
[1] = target: T1, human ROCK1 catalytic domain (Homo sapiens, UniProt Q13464); assay: fluorescence coupling (TR-FRET) enzymatic assay, ROCK1; conditions: 4 nM enzyme, 4 μM ATP, 50 nM Ulight-CREBTide, one hour room temperature; read-out: ROCK1 IC50
T1 construct: GST; purchased Carna BioSciences 01-109
T1 sequence (Q13464 1-477): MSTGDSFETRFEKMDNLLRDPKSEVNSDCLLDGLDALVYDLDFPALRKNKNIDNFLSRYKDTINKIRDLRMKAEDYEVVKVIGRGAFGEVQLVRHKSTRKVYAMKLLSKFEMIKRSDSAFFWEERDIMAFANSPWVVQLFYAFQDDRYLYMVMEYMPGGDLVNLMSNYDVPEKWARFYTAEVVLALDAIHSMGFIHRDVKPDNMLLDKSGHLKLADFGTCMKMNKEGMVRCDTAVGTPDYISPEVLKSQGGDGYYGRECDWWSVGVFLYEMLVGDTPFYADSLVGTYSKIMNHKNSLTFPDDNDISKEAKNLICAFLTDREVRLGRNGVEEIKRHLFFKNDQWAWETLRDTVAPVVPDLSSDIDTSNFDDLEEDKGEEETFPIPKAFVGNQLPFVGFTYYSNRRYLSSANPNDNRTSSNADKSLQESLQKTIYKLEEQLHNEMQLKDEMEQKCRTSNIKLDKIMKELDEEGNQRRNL
Protocol: (§1) Briefly, compounds of the present invention were solubilized in DMSO and a series of 12, three-fold serial dilutions were made for each compound in 2.5% DMSO. The initial starting concentration for the serial dilutions of each compound was 10 μM or 100 μM. Control samples lacking compound, ROCK enzyme or ATP also were prepared and processed in parallel with compound test samples.
The reaction mixtures were incubated at room temperature for one hour. After one hour, the reaction was stopped by the addition of a 10 solution of an Europium-labelled phospho-CREB (Ser133) antibody (Perkin Elmer, Catalog #TRF0200) in LANCE buffer supplemented with 20 mM EDTA. The stopped reaction mixtures were incubated at room temperature for 90 minutes. […] The ICso value for each compound was determined from each dose-response curve using GraphPad Prism 7 software with a sigmodial dose response.

[2] = target: T2, human AKT1 catalytic domain (Homo sapiens, UniProt P31749); assay: fluorescence coupling (TR-FRET) enzymatic assay, AKT1 off-target control; conditions: 0.5 nM enzyme, 4 μM ATP, 50 nM Ulight-CREBTide, one hour room temperature
T2 construct: GST; purchased Carna BioSciences 01-101
T2 sequence (P31749 104-480): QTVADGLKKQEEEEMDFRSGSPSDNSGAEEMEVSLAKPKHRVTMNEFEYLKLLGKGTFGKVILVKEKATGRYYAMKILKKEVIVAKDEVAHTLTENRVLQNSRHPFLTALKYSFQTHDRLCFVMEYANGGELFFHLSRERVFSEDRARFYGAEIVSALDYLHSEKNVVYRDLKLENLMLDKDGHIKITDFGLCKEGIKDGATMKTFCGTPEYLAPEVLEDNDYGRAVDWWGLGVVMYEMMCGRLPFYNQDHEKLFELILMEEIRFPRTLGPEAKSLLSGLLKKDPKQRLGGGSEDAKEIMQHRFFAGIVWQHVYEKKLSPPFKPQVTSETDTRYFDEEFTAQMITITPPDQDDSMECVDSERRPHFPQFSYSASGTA
Protocol: (§2) Dose-response curves for compounds of the present invention were determined using a fluorescence coupling enzymatic assay using purified C-terminal truncated human ROCK1 catalytic domain (amino acids 1-477 of accession number NP_005397.1) fused to GST (Carna BioSciences, Catalog #01-109) and purified C-terminal truncated human ROCK2 enzyme kinase domain (amino acids 1-553 of accession number NP_004841.2) fused to GST BioSciences, Catalog #01-110). In addition, full length cGMP-dependent protein kinase 1 (PKG or PRKG1; amino acids 1-686 of accession number NP_006249.1) fused to GST (Carna BioSciences, Catalog #01-142), full length PKACα (PRKACA; amino acids 1-351 of accession number NP_002721.1) fused to GST (Carna BioSciences, Catalog #01-127), and C-terminal truncated human AKT1 catalytic domain (amino acids 104-480 of accession number NP_005154.1) fused to GST Biosciences, Catalog #01-101) were used as a control to measure any non-desired off-target kinase activity.
as §1
(§3) A 4 μL aliquot of each serial dilution of test compound diluted in H2O with 2.5% DMSO was added to a well containing 4 μL of 10 nM purified N-truncated ROCK1 (4 nM final concentration), 10 nM purified N-truncated ROCK2 enzyme (4 nM final concentration), 1.25 nM AKT1 (0.5 nM final concentration), 25 pM PKACA (10 pM final concentration) or 20 nM PKG (8 nM final concentration), in reaction buffer containing 50 mM Hepes, pH 7.5, 1 mM EGTA, 10 mM MgCl2, 2 mM DTT, and 0.01% Tween 20 (final concentration). To initiate the enzymatic reaction, 2 μL of a solution was added to each well to provide a final concentration of 50 nM Ulight-CREBTide peptide substrate (Perkin Elmer, Catalog #TRF0107) and 4 μM ATP for ROCK1 and AKT1 assays, […] for ROCK2 assays and 30 μM ATP for PKG assays, or 1 μM ATP for PKACA assays. The reaction mixtures were incubated at room temperature for one hour. After one hour, the reaction was stopped by the addition of a 10 solution of an Europium-labelled phospho-CREB (Ser133) antibody (Perkin Elmer, Catalog #TRF0200) in LANCE buffer supplemented with 20 mM EDTA. The stopped reaction mixtures were incubated at room temperature for 90 minutes. The TR-FRET 665/620 ratios were determined using a Clariostar monochromator plate reader instrument (BMG LabTech) in accordance with the manufacturer's instructions. The ICso value for each compound was determined from each dose-response curve using GraphPad Prism 7 software with a sigmodial dose response. Key: A is IC50≤100 nM; B is 100 nM<IC50<1000 nM; C is 1,000<IC50≤10,000 nM; D is IC50>10,000 nM

PKACα (PRKACA) = target: T3, PKACα (PRKACA) (Homo sapiens, UniProt P17612); assay: fluorescence coupling (TR-FRET) enzymatic assay, PKACA off-target control; conditions: 10 pM enzyme, 1 μM ATP, 50 nM Ulight-CREBTide, one hour room temperature
T3 construct: GST; purchased Carna BioSciences 01-127
Protocol: as §2, §1, §3

[3] = target: T4, cGMP-dependent protein kinase 1 (PKG or PRKG1) (Homo sapiens, UniProt Q13976); assay: fluorescence coupling (TR-FRET) enzymatic assay, PKG off-target control; conditions: 8 nM enzyme, 30 μM ATP, 50 nM Ulight-CREBTide, one hour room temperature
T4 construct: GST; purchased Carna BioSciences 01-142
T4 sequence (Q13976 1-686 isoform Q13976-2): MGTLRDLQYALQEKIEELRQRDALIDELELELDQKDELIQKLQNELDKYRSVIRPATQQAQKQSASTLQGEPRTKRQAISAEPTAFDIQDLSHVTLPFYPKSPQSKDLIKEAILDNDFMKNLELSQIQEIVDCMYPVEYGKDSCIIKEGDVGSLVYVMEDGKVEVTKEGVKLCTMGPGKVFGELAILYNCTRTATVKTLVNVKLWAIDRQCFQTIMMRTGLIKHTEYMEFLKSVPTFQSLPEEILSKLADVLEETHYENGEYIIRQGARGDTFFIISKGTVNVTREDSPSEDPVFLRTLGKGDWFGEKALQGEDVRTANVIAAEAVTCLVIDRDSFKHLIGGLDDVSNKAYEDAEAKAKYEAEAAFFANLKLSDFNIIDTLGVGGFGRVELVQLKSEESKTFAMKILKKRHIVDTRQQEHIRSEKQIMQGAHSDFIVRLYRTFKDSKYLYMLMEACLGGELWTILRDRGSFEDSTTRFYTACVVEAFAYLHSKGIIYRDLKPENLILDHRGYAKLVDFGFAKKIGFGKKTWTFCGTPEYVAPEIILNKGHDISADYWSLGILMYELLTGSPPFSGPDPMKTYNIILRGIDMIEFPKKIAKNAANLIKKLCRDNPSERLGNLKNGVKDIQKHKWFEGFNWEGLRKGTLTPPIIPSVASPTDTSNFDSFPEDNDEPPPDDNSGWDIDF
Protocol: as §2, §1, §3

[4] = target: T5, human ROCK2 enzyme kinase domain (Homo sapiens, UniProt O75116); assay: fluorescence coupling (TR-FRET) enzymatic assay, ROCK2; conditions: 4 nM enzyme, 50 nM Ulight-CREBTide, one hour room temperature
T5 construct: GST; purchased Carna BioSciences 01-110
T5 sequence (O75116 1-553): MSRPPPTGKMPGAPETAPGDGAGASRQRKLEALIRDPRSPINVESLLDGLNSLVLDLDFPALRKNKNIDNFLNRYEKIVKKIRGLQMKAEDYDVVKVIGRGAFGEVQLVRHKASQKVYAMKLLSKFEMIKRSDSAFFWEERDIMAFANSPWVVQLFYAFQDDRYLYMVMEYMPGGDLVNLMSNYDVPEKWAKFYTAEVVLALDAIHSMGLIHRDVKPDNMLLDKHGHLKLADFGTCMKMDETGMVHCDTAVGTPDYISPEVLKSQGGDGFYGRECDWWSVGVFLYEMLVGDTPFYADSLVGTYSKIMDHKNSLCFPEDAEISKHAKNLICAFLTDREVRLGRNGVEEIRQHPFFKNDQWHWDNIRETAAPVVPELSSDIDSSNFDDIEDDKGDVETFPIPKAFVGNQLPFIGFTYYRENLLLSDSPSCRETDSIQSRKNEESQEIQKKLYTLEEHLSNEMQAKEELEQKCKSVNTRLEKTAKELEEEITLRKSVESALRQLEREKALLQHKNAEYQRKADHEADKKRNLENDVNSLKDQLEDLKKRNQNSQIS
Protocol: as §2, §1, §3

IC50 [1] [µM]	IC50 [2] [µM]	IC50 (PKACα (PRKACA)) [µM]	IC50 [3] [µM]	IC50 [4] [µM]	Compound
> 10	> 10	> 10	> 10	> 10	N#Cc1ccc2c(c1)N(S(=O)(=O)c1cc(Cl)cc3c(=O)[nH]ccc13)CC2 [Example 20, 1-((7-Chloro-1-oxo-1,2-dihydroisoquinolin-5-yl)sulfonyl)indoline-6-carbonitrile]
> 10	> 10	> 10	> 10	> 10	O=S(=O)(c1cccc2c(O)ncc(F)c12)N1CCc2ccc(Cl)cc21 [Example 21, 5-((6-Chloroindolin-1-yl)sulfonyl)-4-fluoroisoquinolin-1-ol]
< 0.1	> 10	1 to 10	> 10	< 0.1	Cc1cnc(O)c2cccc(S(=O)(=O)N3CCc4ccc(C#N)cc43)c12 [Example 22, 1-((1-Hydroxy-4-methylisoquinolin-5-yl)sulfonyl)indoline-6-carbonitrile]
0.1 to 1	> 10	> 10	> 10	0.1 to 1	Cc1cc(C#N)cc2c1CCN2S(=O)(=O)c1cccc2c(O)ncc(C)c12 [Example 23, 1-((1-Hydroxy-4-methylisoquinolin-5-yl)sulfonyl)-4-methylindoline-6-carbonitrile]
1 to 10	> 10	> 10	> 10	1 to 10	Cc1cnc(O)c2cccc(S(=O)(=O)N3CCc4ccc(Cl)cc43)c12 [Example 24, 5-((6-Chloroindolin-1-yl)sulfonyl)-4-methylisoquinolin-1-ol]
1 to 10	> 10	> 10	> 10	1 to 10	O=c1[nH]ncc2c(S(=O)(=O)N3CCc4ccc(Cl)cc43)cccc12 [Example 25, 5-((6-Chloroindolin-1-yl)sulfonyl)phthalazin-1 (2H)-one]
0.1 to 1	> 10	> 10	> 10	0.1 to 1	N#Cc1ccc2c(c1)N(S(=O)(=O)c1cccc3c(=O)[nH]ncc13)CC2 [Example 26, 1-((1-Oxo-1,2-dihydrophthalazin-5-yl)sulfonyl)indoline-6-carbonitrile]
< 0.1	1 to 10	1 to 10	> 10	< 0.1	N#Cc1ccc2c(c1)N(S(=O)(=O)c1cccc3c(=O)[nH]cc(Cl)c13)CC2 [Example 27, 1-((4-chloro-1-oxo-1,2-dihydroisoquinolin-5-yl)sulfonyl)indoline-6-carbonitrile]
0.1 to 1	> 10	> 10	> 10	0.1 to 1	N#Cc1cc2c(cn1)CCN2S(=O)(=O)c1cccc2c(=O)[nH]ccc12 [Example 28, 1-((1-oxo-1,2-dihydroisoquinolin-5-yl)sulfonyl)-2,3-dihydro-1H-pyrrolo[3,2-c]pyridine-6-carbonitrile]
< 0.1	1 to 10	1 to 10	> 10	< 0.1	COc1cc(C#N)cc2c1CCN2S(=O)(=O)c1cccc2c(=O)[nH]ccc12 [Example 29, 4-methoxy-1-((1-oxo-1,2-dihydroisoquinolin-5-yl)sulfonyl)indoline-6-carbonitrile]
< 0.1	1 to 10	1 to 10	> 10	< 0.1	CC(=O)Nc1cc(C#N)cc2c1CCN2S(=O)(=O)c1cccc2c(=O)[nH]ccc12 [Example 30, N-(6-cyano-1-((1-oxo-1,2-dihydroisoquinolin-5-yl)sulfonyl)indolin-4-yl)acetamide]
< 0.1	> 10	1 to 10	> 10	< 0.1	N#Cc1cc(N)c2c(c1)N(S(=O)(=O)c1cccc3c(=O)[nH]ccc13)CC2 [Example 31, 4-amino-1-((1-oxo-1,2-dihydroisoquinolin-5-yl)sulfonyl)indoline-6-carbonitrile]
< 0.1	> 10	> 10	1 to 10	< 0.1	CC(=O)Nc1cc(C#N)cc2c1CCN2S(=O)(=O)c1cccc2c(=O)[nH]cc(C)c12 [Example 32, N-(6-cyano-1-((4-methyl-1-oxo-1,2-dihydroisoquinolin-5-yl)sulfonyl)indolin-4-yl)acetamide]
< 0.1	> 10	> 10	> 10	< 0.1	Cc1c[nH]c(=O)c2cccc(S(=O)(=O)N3CCc4c(N)cc(C#N)cc43)c12 [Example 33, 4-amino-1-((4-methyl-1-oxo-1,2-dihydroisoquinolin-5-yl)sulfonyl)indoline-6-carbonitrile]
1 to 10	> 10	> 10	> 10	1 to 10	Cc1c[nH]c(=O)c2cccc(S(=O)(=O)N3CCc4c(N(C)C)cc(C#N)cc43)c12 [Example 34, 4-(dimethylamino)-1-((4-methyl-1-oxo-1,2-dihydroisoquinolin-5-yl)sulfonyl)indoline-6-carbonitrile]
< 0.1	> 10	> 10	1 to 10	< 0.1	CC(=O)Nc1cc(C#N)cc2c1CCN2S(=O)(=O)c1cccc2c(=O)[nH]cc(Cl)c12 [Example 35, N-(1-((4-chloro-1-oxo-1,2-dihydroisoquinolin-5-yl)sulfonyl)-6-cyanoindolin-4-yl)acetamide]
< 0.1	> 10	> 10	1 to 10	< 0.1	N#Cc1cc(N)c2c(c1)N(S(=O)(=O)c1cccc3c(=O)[nH]cc(Cl)c13)CC2 [Example 36, 4-amino-1-((4-chloro-1-oxo-1,2-dihydroisoquinolin-5-yl)sulfonyl)indoline-6-carbonitrile]
